Entries after “also recorded” stand apart in the source; their conditions may differ.
Key:
CaMKIIα-WT hub protein = molecular target: CaMKIIα-WT hub protein; set-up: method as in PMID 39275999; details: SPR, purified CaMKIIα-WT hub; cited from earlier work
[1] = molecular target: CaMKIIα-W403L hub protein; set-up: method as in PMID 39275999; details: SPR, purified CaMKIIα-W403L hub; cited from earlier work
[2] = molecular target: T1, rat brain cortical homogenates (Rattus norvegicus, UniProt P11275); assay: [3H]NCS-382 binding to rat brain cortical homogenates
T1 construct: from tissue; host or cells: rat brain cortical homogenate
T1 sequence (P11275 whole entry): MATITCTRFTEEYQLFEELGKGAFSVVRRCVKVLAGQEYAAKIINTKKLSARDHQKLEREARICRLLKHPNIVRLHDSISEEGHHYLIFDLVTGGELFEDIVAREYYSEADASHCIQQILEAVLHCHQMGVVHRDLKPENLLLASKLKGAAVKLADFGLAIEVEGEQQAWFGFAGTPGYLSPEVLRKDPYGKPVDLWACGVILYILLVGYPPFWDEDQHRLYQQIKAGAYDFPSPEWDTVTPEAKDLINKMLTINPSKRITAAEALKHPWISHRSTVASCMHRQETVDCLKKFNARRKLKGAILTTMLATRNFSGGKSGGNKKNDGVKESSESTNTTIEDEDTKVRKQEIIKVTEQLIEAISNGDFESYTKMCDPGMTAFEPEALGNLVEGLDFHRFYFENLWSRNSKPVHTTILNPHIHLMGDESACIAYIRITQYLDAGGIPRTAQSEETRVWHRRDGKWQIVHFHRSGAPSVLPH

CaMKIIα [3] = details: CaMKIIα binding assays previously reported; cited from earlier work
CaMKIIα [4] = details: cited from earlier work
[5] = molecular target: native CaMKIIα (rat cortical homogenate) (Rattus norvegicus, UniProt P11275); assay: Competitive inhibition of [3H]O-5-HDC binding, rat cortical homogenate; set-up: native CaMKIIα (rat cortical homogenate); from tissue; host or cells: rat cerebral cortex homogenate
native CaMKIIα (rat cortical homogenate), sequence (P11275 whole entry): as above
Source text: Ki values were obtained from the One Site-Fit Ki model utilizing the following Cheng-Prusoff equation: […]
Where [RL] represents the specific radioligand concentration from each experiment and KD is the dissociation constant of [^3H]O-5-HDC acquired from saturation curves.

ischemia = details: several mouse models of ischemia; cited from earlier work
CaMKIIβ L467W/C533R [6] = molecular target: T2, CaMKIIβ L467W/C533R (Rattus norvegicus, UniProt P08413, C533R/L467W); assay: Displacement of [3H]O-5-HDC binding in CaMKIIβ L467W/C533R HEK293T homogenate
T2 construct: host or cells: HEK293T whole-cell homogenate
T2 sequence (P08413 whole entry L467W/C533R): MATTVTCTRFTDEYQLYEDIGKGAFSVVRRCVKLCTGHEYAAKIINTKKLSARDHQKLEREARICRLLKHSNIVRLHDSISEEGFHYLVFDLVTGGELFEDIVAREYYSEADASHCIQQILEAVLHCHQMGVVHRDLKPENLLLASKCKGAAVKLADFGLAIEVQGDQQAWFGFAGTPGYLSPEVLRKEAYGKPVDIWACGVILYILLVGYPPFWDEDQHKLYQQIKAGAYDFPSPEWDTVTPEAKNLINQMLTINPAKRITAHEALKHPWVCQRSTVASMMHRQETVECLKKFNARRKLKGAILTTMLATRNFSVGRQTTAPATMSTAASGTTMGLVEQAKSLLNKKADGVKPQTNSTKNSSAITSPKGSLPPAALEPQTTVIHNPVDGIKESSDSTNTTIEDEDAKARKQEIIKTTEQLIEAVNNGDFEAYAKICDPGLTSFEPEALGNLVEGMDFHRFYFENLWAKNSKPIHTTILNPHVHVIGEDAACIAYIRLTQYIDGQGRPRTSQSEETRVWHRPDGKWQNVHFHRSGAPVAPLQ
Protocol: (§1) Recombinant HEK293T whole-cell homogenate equilibrium binding experiments were performed similar to that described previously ([14]), using a 48-well assay format. […] The binding reaction was terminated by precipitation with ice-cold acetone (1 h at −20 °C), and radioligand-bound protein was separated from free radioligand by vacuum-filtration through glass fibre (GF/C) filters. Counts (disintegrations per minute [DPM]) were detected by liquid scintillation counting ([14]). Counts for CaMKIIα WT typically ranged from 2000 to 6000 DPM with [^3H]HOCPCA and 1800 to 5000 DPM with [^3H]O-5-HDC, slightly lower for the CaMKIIβ […] mutant. All experiments were performed in technical triplicates using at least three different batches of HEK293T cell homogenates.
(§2) Data analysis: The specific binding was determined as Total binding subtracted NSB. For the pooling of data from recombinant binding, the specific binding of the variant was normalized to the specific binding of CaMKIIα WT within each experiment.
Specific binding (% of control)=Top-Bottom1+10(log(IC50-[compound]))
where top and bottom represent the upper and lower plateaus of the curve, respectively.

CaMKIIα R469Q = molecular target: T3, CaMKIIα R469Q (Rattus norvegicus, UniProt P11275, R469Q); assay: [3H]HOCPCA binding, HEK293T whole-cell homogenate, CaMKIIα R469Q; details: 40 nM radioligand
T3 construct: host or cells: HEK293T whole-cell homogenate
T3 sequence (P11275 whole entry R469Q): as the sequence (P11275 whole entry) above, with R469Q counted along it
Protocol: as §1, §2

CaMKIIα H395A = molecular target: T4, CaMKIIα H395A (Rattus norvegicus, UniProt P11275, H395A); assay: [3H]HOCPCA binding, HEK293T whole-cell homogenate, CaMKIIα H395A; details: normalized to CaMKIIα WT
T4 construct: host or cells: HEK293T whole-cell homogenate
T4 sequence (P11275 whole entry H395A): as the sequence (P11275 whole entry) above, with H395A counted along it
Protocol: as §1, §2

CaMKIIα W403L = molecular target: T5, CaMKIIα W403L (Rattus norvegicus, UniProt P11275, W403L); assay: [3H]HOCPCA binding, HEK293T whole-cell homogenate, CaMKIIα W403L; details: p = 0.0038
T5 construct: host or cells: HEK293T whole-cell homogenate
T5 sequence (P11275 whole entry W403L): as the sequence (P11275 whole entry) above, with W403L counted along it
Protocol: as §1, §2

CaMKIIγ C518R = molecular target: T6, CaMKIIγ C518R (Rattus norvegicus, UniProt P11730, C518R); assay: [3H]HOCPCA binding, HEK293T whole-cell homogenate, CaMKIIγ C518R
T6 construct: host or cells: HEK293T whole-cell homogenate
T6 sequence (P11730 whole entry C518R): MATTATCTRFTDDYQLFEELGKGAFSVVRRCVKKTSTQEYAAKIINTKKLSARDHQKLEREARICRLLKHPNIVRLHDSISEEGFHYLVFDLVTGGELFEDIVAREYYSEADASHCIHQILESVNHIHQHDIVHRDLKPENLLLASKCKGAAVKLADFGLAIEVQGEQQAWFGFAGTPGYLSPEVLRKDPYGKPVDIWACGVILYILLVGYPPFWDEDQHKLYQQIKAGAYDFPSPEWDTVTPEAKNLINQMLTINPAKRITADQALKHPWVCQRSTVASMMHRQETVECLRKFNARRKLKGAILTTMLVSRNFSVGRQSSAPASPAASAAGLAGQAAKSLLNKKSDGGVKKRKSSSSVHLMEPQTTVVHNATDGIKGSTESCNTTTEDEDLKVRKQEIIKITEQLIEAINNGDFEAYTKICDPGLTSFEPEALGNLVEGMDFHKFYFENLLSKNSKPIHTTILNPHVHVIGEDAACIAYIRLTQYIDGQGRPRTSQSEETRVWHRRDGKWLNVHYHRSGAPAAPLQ
Protocol: as §1, §2

CaMKIIα R453Q = molecular target: T7, CaMKIIα R453Q (Rattus norvegicus, UniProt P11275, R453Q); assay: [3H]HOCPCA binding, HEK293T whole-cell homogenate, CaMKIIα R453Q; details: normalized to CaMKIIα WT
T7 construct: host or cells: HEK293T whole-cell homogenate
T7 sequence (P11275 whole entry R453Q): as the sequence (P11275 whole entry) above, with R453Q counted along it
Protocol: as §1, §2

CaMKIIβ L467W/C533R [7] = molecular target: T2, CaMKIIβ L467W/C533R; assay: [3H]HOCPCA binding, HEK293T whole-cell homogenate, CaMKIIβ L467W/C533R
Protocol: as §1, §2

[8] = system: CaMKIIα (rat cortical homogenate); set-up: method as in earlier work; details: comparative value, [3H]HOCPCA binding, ref 1 (Leurs et al., PNAS 2021); cited from earlier work
CaMKIIβ C533R = molecular target: T8, CaMKIIβ C533R (Rattus norvegicus, UniProt P08413, C533R); assay: [3H]HOCPCA binding, HEK293T whole-cell homogenate, CaMKIIβ C533R
T8 construct: host or cells: HEK293T whole-cell homogenate
T8 sequence (P08413 whole entry C533R): as the sequence (P08413 whole entry L467W/C533R) above, with W467L counted along it
Protocol: as §1, §2

CaMKIIβ WT = molecular target: T9, CaMKIIβ WT (Rattus norvegicus, UniProt P08413); assay: [3H]HOCPCA binding, HEK293T whole-cell homogenate, CaMKIIβ WT
T9 construct: host or cells: HEK293T whole-cell homogenate
T9 sequence (P08413 whole entry): as the sequence (P08413 whole entry L467W/C533R) above, with W467L, R533C counted along it
Protocol: as §1, §2

[9] = molecular target: T10, CaMKIIα R433Q/R453Q/R469Q (Rattus norvegicus, UniProt P11275, R433Q/R453Q/R469Q); assay: [3H]HOCPCA binding, HEK293T whole-cell homogenate, CaMKIIα triple mutant; details: CaMKIIα triple mutant RRR433/453/469QQQ
T10 construct: host or cells: HEK293T whole-cell homogenate
T10 sequence (P11275 whole entry R433Q/R453Q/R469Q): as the sequence (P11275 whole entry) above, with R433Q, R453Q, R469Q counted along it
Protocol: as §1, §2

CaMKIIβ L467W = molecular target: T11, CaMKIIβ L467W (Rattus norvegicus, UniProt P08413, L467W); assay: [3H]HOCPCA binding, HEK293T whole-cell homogenate, CaMKIIβ L467W
T11 construct: host or cells: HEK293T whole-cell homogenate
T11 sequence (P08413 whole entry L467W): as the sequence (P08413 whole entry L467W/C533R) above, with R533C counted along it
Protocol: as §1, §2

CaMKIIα R433Q = molecular target: T12, CaMKIIα R433Q (Rattus norvegicus, UniProt P11275, R433Q); assay: [3H]HOCPCA binding, HEK293T whole-cell homogenate, CaMKIIα R433Q; details: 40 nM radioligand
T12 construct: host or cells: HEK293T whole-cell homogenate
T12 sequence (P11275 whole entry R433Q): as the sequence (P11275 whole entry) above, with R433Q counted along it
Protocol: as §1, §2

[10] = molecular target: CaMKIIα (rat cortical homogenate); details: inhibition of [3H]HOCPCA binding, ref 1 (Leurs et al., PNAS 2021); read-out: Comparative Ki, [3H]HOCPCA binding; cited from earlier work
[11] = cited from earlier work

O=C(O)Cc1cn2nc(-c3ccc(Cl)cc3)ccc2n1 [PIPA]
Kd (CaMKIIα-WT hub protein): 1.4 µM
Kd [1]: 2.8 µM

O=C(O)Cc1cc(O)c(I)cc1Oc1ccccc1Cl [compound 1]
affinity [2]: mid-micromolar
change in affinity in comparison to O-5-HDC [2]: 100 X

O=C(O)Cc1cc(O)ccc1Oc1ccccc1Cl
Ki (CaMKIIα [3]): 0.027 µM

O=C(O)CCCO [GHB, γ-hydroxybutyric acid]
effect on CaMKIIα activity (syntide-2 phosphorylation) (CaMKIIα [4]): not to affect CaMKIIα activity
lower affinity in displacing [3H]O-5-HDC than [3H]HOCPCA ([5]; rat cortical homogenate): 10 fold
neuroprotection (ischemia): neuroprotective
IC50 (CaMKIIβ L467W/C533R [6]; IC50, displacement of [3H]O-5-HDC): 710 µM
IC50 (CaMKIIβ L467W/C533R [6]; pIC50 (value in parentheses after IC50), displacement of [3H]O-5-HDC): 676 µM

[3H]C1(O)C=C(C(=O)O)CC1 (stereo not drawn) [[^3H]HOCPCA]
specific [3H]HOCPCA binding (CaMKIIα R469Q): completely abolished
specific [3H]HOCPCA binding remaining (CaMKIIα H395A): 7–9%
specific [3H]HOCPCA binding (CaMKIIα W403L): 70 % of WT
specific [3H]HOCPCA binding (CaMKIIγ C518R): no specific binding
specific [3H]HOCPCA binding remaining (CaMKIIα R453Q): 7–9%
specific [3H]HOCPCA binding (CaMKIIβ L467W/C533R [7]): no detected specific [^3H]HOCPCA binding; also recorded: Neither of these led to any noticeable radioligand binding
Bmax [8]: 43 pmol/mg protein
Kd [8]: 0.26 µM
pKd ± SEM [8]: 6.6 ± 0.06
specific [3H]HOCPCA binding (CaMKIIβ C533R): no specific binding
specific [3H]HOCPCA binding (CaMKIIβ WT): no detected specific [^3H]HOCPCA binding
specific [3H]HOCPCA binding [9]: completely binding-deficient
specific [3H]HOCPCA binding (CaMKIIβ L467W): no detected specific [^3H]HOCPCA binding; also recorded: Neither of these led to any noticeable radioligand binding
specific [3H]HOCPCA binding (CaMKIIα R433Q): completely abolished

O=C(O)Cc1c(Oc2ccccc2Cl)cc(I)c(O)c1I [compound 2]
affinity [2]: mid-micromolar
change in affinity in comparison to O-5-HDC [2]: 100 X

O=C(O)C1=CC(O)CC1 (stereo not drawn) [HOCPCA, 3-hydroxycyclopent-1-enecarboxylic acid]
effect on CaMKIIα activity (syntide-2 phosphorylation) (CaMKIIα [4]): not to affect CaMKIIα activity
Ki ([5]; Ki): 1.27 µM
Ki ([5]; pKi ± S.E.M., inhibition of [3H]O-5-HDC binding, rat cortical homogenate, n = 4): 1.17 µM
lower affinity in displacing [3H]O-5-HDC than [3H]HOCPCA ([5]; rat cortical homogenate): 10 fold
neuroprotection (ischemia): neuroprotective
Ki [10]: 0.13 µM

O=C(O)Cc1cc(O)ccc1Nc1c(Cl)cccc1Cl [5-HDC, 5-hydroxydiclofenac]
chemical stability [11]: chemically unstable

From paper PMC12148480 (The Journal of Biological Chemistry, 2025)
